The record followed here is paper PMC5218480 (PLoS ONE, 2017).

The subject of the assay is MV-4-11 cells. In words: Gene expression microarray analysis (Affymetrix PrimeView) and GSEA. It counts as cell-based, human. Set-up: RFU PODN (11730768_x_at) / Fold change /veh PODN (11730768_x_at) / RFU LINC00158 (11744669_a_at) / Fold change /veh LINC00158 (11744669_a_at) / RFU DUSP10 (11751237_a_at) / Fold change /veh DUSP10 (11751237_a_at) / RFU ID3 (11757404_x_at) / Fold change /veh ID3 (11757404_x_at) / RFU PLEKHG5 (11737974_s_at) / Fold change /veh PLEKHG5 (11737974_s_at) / RFU LRRC4B (11730491_at) / Fold change /veh LRRC4B (11730491_at) / RFU GIMAP4 (11747438_a_at) / Fold change /veh GIMAP4 (11747438_a_at) / RFU KRT8 (11758183_x_at) / Fold change /veh KRT8 (11758183_x_at) / RFU CNN1 (11734310_a_at) / Fold change /veh CNN1 (11734310_a_at) / RFU VPS37D (11726825_at) / Fold change /veh VPS37D (11726825_at) / RFU C10orf10 (11716522_x_at) / Fold change /veh C10orf10 (11716522_x_at) / RFU KIR2DL2 /// KIR2DL4 /// KIR2DL5A /// KIR2DL5B /// KIR2DS1 /// KIR2DS2 /// KIR2DS3 /// KIR2DS4 /// KIR3DL3 /// KIR3DL3 /// KIR3DS1 (11738374_at) / Fold change /veh KIR2DL2 /// KIR2DL4 /// KIR2DL5A /// KIR2DL5B /// KIR2DS1 /// KIR2DS2 /// KIR2DS3 /// KIR2DS4 /// KIR3DL3 /// KIR3DL3 /// KIR3DS1 (11738374_at) / RFU C1QL1 (11718748_at) / Fold change /veh C1QL1 (11718748_at) / RFU TMPRSS4 (11747572_a_at) / Fold change /veh TMPRSS4 (11747572_a_at) / RFU HAMP (11756126_x_at) / Fold change /veh HAMP (11756126_x_at) / RFU RNFT2 (11725882_a_at) / Fold change /veh RNFT2 (11725882_a_at) / RFU NR4A2 (11747474_a_at) / Fold change /veh NR4A2 (11747474_a_at) / RFU ABCC12 (11746883_a_at) / Fold change /veh ABCC12 (11746883_a_at) / RFU TMEM136 (11760407_x_at) / Fold change /veh TMEM136 (11760407_x_at) / RFU CLDN22 /// WWC2 (11732394_at) / Fold change /veh CLDN22 /// WWC2 (11732394_at) / RFU HLA-DPB1 (11760878_x_at) / Fold change /veh HLA-DPB1 (11760878_x_at) / RFU SPINT1 (11716480_a_at) / Fold change /veh SPINT1 (11716480_a_at) / RFU GAP43 (11754022_s_at) / Fold change /veh GAP43 (11754022_s_at) / RFU A4GNT (11735810_at) / Fold change /veh A4GNT (11735810_at) / RFU PRB3 (11715151_x_at) / Fold change /veh PRB3 (11715151_x_at) / RFU TUBB4B (11761932_at) / Fold change /veh TUBB4B (11761932_at) / RFU CAPN14 (11732068_a_at) / Fold change /veh CAPN14 (11732068_a_at) / RFU TMCC2 (11721928_a_at) / Fold change /veh TMCC2 (11721928_a_at) / RFU IRGQ (11745062_a_at) / Fold change /veh IRGQ (11745062_a_at) / RFU FAM174B (11720279_a_at) / Fold change /veh FAM174B (11720279_a_at) / RFU TMPRSS4 (11748680_a_at) / Fold change /veh TMPRSS4 (11748680_a_at) / RFU FAM212B (11763350_a_at) / Fold change /veh FAM212B (11763350_a_at) / RFU PLEKHG5 (11743358_a_at) / Fold change /veh PLEKHG5 (11743358_a_at) / RFU ZSCAN30 (11745921_a_at) / Fold change /veh ZSCAN30 (11745921_a_at) / RFU CMKLR1 (11741424_a_at) / Fold change /veh CMKLR1 (11741424_a_at) / RFU LOC101060620 /// MAPK8IP1 (11723275_at) / Fold change /veh LOC101060620 /// MAPK8IP1 (11723275_at) / RFU SPTSSB (11747773_x_at) / Fold change /veh SPTSSB (11747773_x_at) / RFU PRSS12 (11739890_at) / Fold change /veh PRSS12 (11739890_at) / RFU BIN1 (11741810_x_at) / Fold change /veh BIN1 (11741810_x_at) / RFU WNT11 (11732464_a_at) / Fold change /veh WNT11 (11732464_a_at) / RFU C10orf10 (11716521_a_at) / Fold change /veh C10orf10 (11716521_a_at) / RFU C5orf56 (11738089_at) / Fold change /veh C5orf56 (11738089_at) / RFU CYB561 (11721691_x_at) / Fold change /veh CYB561 (11721691_x_at) / RFU ANKRD19P (11752326_a_at) / Fold change /veh ANKRD19P (11752326_a_at) / RFU OR2T12 /// OR2T33 /// OR2T8 (11738714_s_at) / Fold change /veh OR2T12 /// OR2T33 /// OR2T8 (11738714_s_at) / RFU VCAN (11748164_a_at) / Fold change /veh VCAN (11748164_a_at) / RFU JSRP1 (11732532_at) / Fold change /veh JSRP1 (11732532_at) / RFU KRTAP10-11 (11738290_x_at) / Fold change /veh KRTAP10-11 (11738290_x_at) / RFU MYO3A (11730013_a_at) / Fold change /veh MYO3A (11730013_a_at) / RFU EBF3 (11725865_a_at) / Fold change /veh EBF3 (11725865_a_at) / RFU CAMK2N1 (11719241_x_at) / Fold change /veh CAMK2N1 (11719241_x_at) / RFU C5orf56 (11738088_a_at) / Fold change /veh C5orf56 (11738088_a_at) / RFU OLFML3 (11715873_a_at) / Fold change /veh OLFML3 (11715873_a_at) / RFU LOC100653217 /// NTM (11731650_a_at) / Fold change /veh LOC100653217 /// NTM (11731650_a_at) / RFU MAPK11 (11762145_a_at) / Fold change /veh MAPK11 (11762145_a_at) / RFU FIZ1 (11724087_x_at) / Fold change /veh FIZ1 (11724087_x_at) / RFU OASL (11726364_x_at) / Fold change /veh OASL (11726364_x_at) / RFU SOX15 (11748057_x_at) / Fold change /veh SOX15 (11748057_x_at) / RFU CD79A (11719716_a_at) / Fold change /veh CD79A (11719716_a_at) / RFU HIST1H1D (11736915_at) / Fold change /veh HIST1H1D (11736915_at) / RFU CASKIN2 (11723855_a_at) / Fold change /veh CASKIN2 (11723855_a_at) / RFU LOC730098 (11760151_x_at) / Fold change /veh LOC730098 (11760151_x_at) / RFU OR4N2 (11742367_at) / Fold change /veh OR4N2 (11742367_at) / RFU PRRT2 (11749266_a_at) / Fold change /veh PRRT2 (11749266_a_at) / RFU SNX32 (11753110_a_at) / Fold change /veh SNX32 (11753110_a_at) / RFU CDHR5 (11726645_a_at) / Fold change /veh CDHR5 (11726645_a_at) / RFU RCAN1 (11760418_a_at) / Fold change /veh RCAN1 (11760418_a_at) / RFU FAM167A (11723789_a_at) / Fold change /veh FAM167A (11723789_a_at) / RFU FAM26E (11764081_at) / Fold change /veh FAM26E (11764081_at) / RFU ISYNA1 (11749810_s_at) / Fold change /veh ISYNA1 (11749810_s_at) / RFU ACY1 (11761880_at) / Fold change /veh ACY1 (11761880_at) / RFU 11764098_at / Fold change /veh 11764098_at / RFU SAMD14 (11745864_x_at) / Fold change /veh SAMD14 (11745864_x_at) / RFU NPB (11741838_a_at) / Fold change /veh NPB (11741838_a_at) / RFU TMPRSS6 (11731388_a_at) / Fold change /veh TMPRSS6 (11731388_a_at) / RFU KRTAP10-2 (11738614_at) / Fold change /veh KRTAP10-2 (11738614_at) / RFU ARHGAP8 /// PRR5-ARHGAP8 (11727945_x_at) / Fold change /veh ARHGAP8 /// PRR5-ARHGAP8 (11727945_x_at) / RFU KRTAP5-7 /// NADSYN1 (11734609_at) / Fold change /veh KRTAP5-7 /// NADSYN1 (11734609_at) / RFU RASL12 (11751679_a_at) / Fold change /veh RASL12 (11751679_a_at) / RFU CDKN2B (11736163_a_at) / Fold change /veh CDKN2B (11736163_a_at) / RFU PRF1 (11729649_at) / Fold change /veh PRF1 (11729649_at) / RFU, ZNF638 /// ZNF638-IT1 / Fold change vs veh, ZNF638 /// ZNF638-IT1 / RFU, PANK3 / Fold change vs veh, PANK3 / RFU, SH3YL1 / Fold change vs veh, SH3YL1 / RFU, ZEB2 / Fold change vs veh, ZEB2 / RFU, NRIP1 / Fold change vs veh, NRIP1 / RFU, PTTG1IP / Fold change vs veh, PTTG1IP / RFU, CAPN2 / Fold change vs veh, CAPN2 / RFU, MED14 / Fold change vs veh, MED14 / RFU, SNORA58 / Fold change vs veh, SNORA58 / RFU, C1orf63 / Fold change vs veh, C1orf63 / RFU, LRRFIP1 / Fold change vs veh, LRRFIP1 / RFU, NDUFAF7 / Fold change vs veh, NDUFAF7 / RFU, SLC12A2 / Fold change vs veh, SLC12A2 / RFU, IBTK / Fold change vs veh, IBTK / RFU, ESF1 / Fold change vs veh, ESF1 / Fold change vs veh, TMEM50B / RFU, TAOK1 / Fold change vs veh, TAOK1 / RFU, ACBD3 / Fold change vs veh, ACBD3 / RFU, TMA16 / Fold change vs veh, TMA16 / RFU, RWDD3 / Fold change vs veh, RWDD3 / RFU, BCAT1 / Fold change vs veh, BCAT1 / RFU, EDEM3 / Fold change vs veh, EDEM3 / RFU, TMEM33 / Fold change vs veh, TMEM33 / RFU, WDR75 / Fold change vs veh, WDR75 / RFU, AHCTF1 / Fold change vs veh, AHCTF1 / RFU, TFRC / Fold change vs veh, TFRC / RFU, ZDHHC17 / Fold change vs veh, ZDHHC17 / RFU, NOM1 / Fold change vs veh, NOM1 / RFU, ARL8B / Fold change vs veh, ARL8B / RFU, ZBTB11 / Fold change vs veh, ZBTB11 / RFU, TAMM41 / Fold change vs veh, TAMM41 / RFU, KIAA1704 /// LOC100996395 / Fold change vs veh, KIAA1704 /// LOC100996395 / RFU, ING1 / Fold change vs veh, ING1 / RFU, TRMT61B / Fold change vs veh, TRMT61B / RFU, FUBP3 / Fold change vs veh, FUBP3 / RFU, TP53 / Fold change vs veh, TP53 / RFU, TNKS2 / Fold change vs veh, TNKS2 / RFU, ZFP14 / Fold change vs veh, ZFP14 / RFU, ACTR2 / Fold change vs veh, ACTR2 / RFU, PPP3R1 / Fold change vs veh, PPP3R1 / RFU, PIK3R1 / Fold change vs veh, PIK3R1 / RFU, HNRNPA1 / Fold change vs veh, HNRNPA1 / RFU, RNF170 / Fold change vs veh, RNF170 / RFU, ZNF28 / Fold change vs veh, ZNF28 / RFU, RNGTT / Fold change vs veh, RNGTT / RFU, OGT / Fold change vs veh, OGT / RFU, BRD1 / Fold change vs veh, BRD1 / RFU, MARS / Fold change vs veh, MARS / RFU, ZNF655 / Fold change vs veh, ZNF655 / RFU, FAHD1 / Fold change vs veh, FAHD1 / RFU, BDP1 / Fold change vs veh, BDP1 / RFU, LRRCC1 / Fold change vs veh, LRRCC1 / RFU, ARID1A / Fold change vs veh, ARID1A / RFU, ZNF146 / Fold change vs veh, ZNF146 / RFU, ZNF330 / Fold change vs veh, ZNF330 / RFU, GPN3 / Fold change vs veh, GPN3 / RFU, C9orf123 / Fold change vs veh, C9orf123 / RFU, N4BP2L2 / Fold change vs veh, N4BP2L2 / RFU, ARFIP1 / Fold change vs veh, ARFIP1 / RFU, FAM179B / Fold change vs veh, FAM179B / RFU, BCL10 / Fold change vs veh, BCL10 / RFU, UHRF1BP1L / Fold change vs veh, UHRF1BP1L / RFU, BET1 / Fold change vs veh, BET1 / RFU, CNOT2 / Fold change vs veh, CNOT2 / RFU, ZNF268 / Fold change vs veh, ZNF268 / Fold change vs veh, ZNF507 / RFU, DGCR2 / Fold change vs veh, DGCR2 / RFU, WDSUB1 / Fold change vs veh, WDSUB1 / Fold change vs veh, HSP90B1 /// MIR3652 / RFU, ADSS / Fold change vs veh, ADSS / RFU, GK / Fold change vs veh, GK / RFU, ZNF148 / Fold change vs veh, ZNF148 / RFU, TAF9 / Fold change vs veh, TAF9 / RFU, SLC1A5 / Fold change vs veh, SLC1A5 / RFU, SLMO2 / Fold change vs veh, SLMO2 / RFU, ABCC4 / Fold change vs veh, ABCC4 / RFU, LOC101060439 /// RAP1B / Fold change vs veh, LOC101060439 /// RAP1B / RFU, RFX7 / Fold change vs veh, RFX7 / RFU, GTPBP10 / Fold change vs veh, GTPBP10 / RFU, CNEP1R1 / Fold change vs veh, CNEP1R1 / RFU, BIVM-ERCC5 /// ERCC5 / Fold change vs veh, BIVM-ERCC5 /// ERCC5 / RFU, ILF3 / Fold change vs veh, ILF3 / RFU 11762660_at / Fold change /veh 11762660_at / RFU VCAN (11757783_s_at) / Fold change /veh VCAN (11757783_s_at) / RFU DDX43 (11728927_at) / Fold change /veh DDX43 (11728927_at) / RFU KRT8 (11758188_x_at) / Fold change /veh KRT8 (11758188_x_at) / RFU NKD1 (11759106_at) / Fold change /veh NKD1 (11759106_at) / RFU SRD5A1 (11742802_a_at) / Fold change /veh SRD5A1 (11742802_a_at) / RFU TPSAB1 /// TPSB2 (11721975_s_at) / Fold change /veh TPSAB1 /// TPSB2 (11721975_s_at) / RFU GSTM3 (11746129_a_at) / Fold change /veh GSTM3 (11746129_a_at) / RFU IL23R (11737362_x_at) / Fold change /veh IL23R (11737362_x_at) / RFU TMEM51 (11727254_a_at) / Fold change /veh TMEM51 (11727254_a_at) / RFU PIWIL2 (11732686_x_at) / Fold change /veh PIWIL2 (11732686_x_at) / RFU ORM1 (11744905_x_at) / Fold change /veh ORM1 (11744905_x_at) / RFU CCDC152 (11743942_at) / Fold change /veh CCDC152 (11743942_at) / RFU ECM1 (11717891_a_at) / Fold change /veh ECM1 (11717891_a_at) / RFU IL23R (11748794_a_at) / Fold change /veh IL23R (11748794_a_at) / RFU TNFAIP8L3 (11732012_x_at) / Fold change /veh TNFAIP8L3 (11732012_x_at) / RFU MBOAT4 (11741988_at) / Fold change /veh MBOAT4 (11741988_at) / RFU 11764193_at / Fold change /veh 11764193_at / RFU TMEM53 (11763286_at) / Fold change /veh TMEM53 (11763286_at) / RFU MAGEB2 (11727129_at) / Fold change /veh MAGEB2 (11727129_at) / RFU TMEM200A (11744735_a_at) / Fold change /veh TMEM200A (11744735_a_at) / RFU CCDC152 (11751479_a_at) / Fold change /veh CCDC152 (11751479_a_at) / RFU FAM211A (11726209_a_at) / Fold change /veh FAM211A (11726209_a_at) / RFU RGS16 (11746705_a_at) / Fold change /veh RGS16 (11746705_a_at) / RFU VCAN (11755009_s_at) / Fold change /veh VCAN (11755009_s_at) / RFU RHOB (11743442_s_at) / Fold change /veh RHOB (11743442_s_at) / RFU RGS16 (11720943_a_at) / Fold change /veh RGS16 (11720943_a_at) / RFU RGS16 (11720944_at) / Fold change /veh RGS16 (11720944_at) / RFU, VPS4B / Fold change vs veh, VPS4B / RFU, CREB1 / Fold change vs veh, CREB1 / RFU, DNAJC13 / Fold change vs veh, DNAJC13 / RFU, GNAQ / Fold change vs veh, GNAQ / RFU, CDK5R1 / Fold change vs veh, CDK5R1 / RFU, ZRANB3 / Fold change vs veh, ZRANB3 / RFU, CUL4A / Fold change vs veh, CUL4A / RFU, CCNY / Fold change vs veh, CCNY / RFU, UFL1 / Fold change vs veh, UFL1 / RFU, COG3 / Fold change vs veh, COG3 / RFU, DIAPH2 / Fold change vs veh, DIAPH2 / RFU, SKA2 / Fold change vs veh, SKA2 / RFU, AFF3 / Fold change vs veh, AFF3 / RFU, LMF1 / Fold change vs veh, LMF1 / RFU, IPO11 / Fold change vs veh, IPO11 / RFU, DFFB / Fold change vs veh, DFFB / RFU, FOXP1 / Fold change vs veh, FOXP1 / RFU, CARD8 / Fold change vs veh, CARD8 / RFU, STRN3 / Fold change vs veh, STRN3 / RFU, ADK / Fold change vs veh, ADK / RFU, RASSF2 / Fold change vs veh, RASSF2 / RFU, WIPF1 / Fold change vs veh, WIPF1 / RFU, LARP1B / Fold change vs veh, LARP1B / RFU, RASA1 / Fold change vs veh, RASA1 / RFU, RB1 / Fold change vs veh, RB1 / RFU, PPFIA1 / Fold change vs veh, PPFIA1 / RFU, MAT2A / Fold change vs veh, MAT2A / RFU, CCT5 / Fold change vs veh, CCT5 / RFU, WDR92 / Fold change vs veh, WDR92 / RFU, CUX1 / Fold change vs veh, CUX1 / RFU, TTC7A / Fold change vs veh, TTC7A / RFU, TMEM135 / Fold change vs veh, TMEM135 / RFU, DEPTOR / Fold change vs veh, DEPTOR / RFU, CPM / Fold change vs veh, CPM / RFU, DNAJB6 / Fold change vs veh, DNAJB6 / RFU, CACNA2D3 / Fold change vs veh, CACNA2D3 / RFU, DTX4 / Fold change vs veh, DTX4 / RFU, TFCP2 / Fold change vs veh, TFCP2 / RFU, GMCL1 /// GMCL1P1 / Fold change vs veh, GMCL1 /// GMCL1P1 / RFU, AEBP2 / Fold change vs veh, AEBP2 / RFU, SNHG1 /// SNORD22 /// SNORD25 /// SNORD26 /// SNORD27 /// SNORD28 /// SNORD29 /// SNORD31 / Fold change vs veh, SNHG1 /// SNORD22 /// SNORD25 /// SNORD26 /// SNORD27 /// SNORD28 /// SNORD29 /// SNORD31 / Fold change (Aza/veh), C12orf56 (ProbeSet 11735607_a_at) / Fold change (ACY-1035/veh), C12orf56 (ProbeSet 11735607_a_at) / Fold change (Aza/veh), FGFR1OP (ProbeSet 11751329_s_at) / Fold change (ACY-1035/veh), FGFR1OP (ProbeSet 11751329_s_at) / Fold change (Aza/veh), VPS36 (ProbeSet 11739960_a_at) / Fold change (ACY-1035/veh), VPS36 (ProbeSet 11739960_a_at) / RFU SYPL1 (11715823_x_at) / Fold change /veh SYPL1 (11715823_x_at) / RFU IGFBP7 (11715501_s_at) / Fold change /veh IGFBP7 (11715501_s_at) / RFU REEP3 (11722064_at) / Fold change /veh REEP3 (11722064_at) / RFU IGLL1 (11728026_x_at) / Fold change /veh IGLL1 (11728026_x_at): dose or concentration left out as unconfirmed. The following applies: ProbeSet 11741070_a_at; LIST B.

Take `Nc1ncn([C@@H]2O[C@H](CO)[C@@H](O)[C@H]2O)c(=O)n1` [azacitidine]: the “RFU, ZNF146” value is on record as 2051.58 RFU.
